{
  "source": "PubChem BioAssay (NCI)",
  "assay_in_all_cases": "growth of human tumour cells (NCI), 48 h",
  "key": {"786-0 renal": {"system": "786-0 renal"}, "CCRF-CEM leukemia": {"system": "CCRF-CEM leukemia"}, "TK-10 renal": {"system": "TK-10 renal"}, "SW-620 colon": {"system": "SW-620 colon"}, "OVCAR-5 ovarian": {"system": "OVCAR-5 ovarian"}, "NCI-H226 lung": {"system": "NCI-H226 lung"}, "SK-MEL-5 melanoma": {"system": "SK-MEL-5 melanoma"}, "RXF 393 renal": {"system": "RXF 393 renal"}, "NCI-H460 lung": {"system": "NCI-H460 lung"}, "MCF7 breast": {"system": "MCF7 breast"}, "A498 renal": {"system": "A498 renal"}, "PC-3 prostate": {"system": "PC-3 prostate"}, "CAKI-1 renal": {"system": "CAKI-1 renal"}, "HL-60(TB) leukemia": {"system": "HL-60(TB) leukemia"}, "MALME-3M melanoma": {"system": "MALME-3M melanoma"}, "OVCAR-8 ovarian": {"system": "OVCAR-8 ovarian"}, "ACHN renal": {"system": "ACHN renal"}, "SNB-19 CNS": {"system": "SNB-19 CNS"}, "HT29 colon": {"system": "HT29 colon"}, "SK-OV-3 ovarian": {"system": "SK-OV-3 ovarian"}, "MOLT-4 leukemia": {"system": "MOLT-4 leukemia"}, "T-47D breast": {"system": "T-47D breast"}, "OVCAR-3 ovarian": {"system": "OVCAR-3 ovarian"}, "OVCAR-4 ovarian": {"system": "OVCAR-4 ovarian"}, "IGROV1 ovarian": {"system": "IGROV1 ovarian"}, "HOP-92 NSCLC": {"system": "HOP-92 NSCLC"}, "SN12C renal": {"system": "SN12C renal"}, "SK-MEL-2 melanoma": {"system": "SK-MEL-2 melanoma"}, "A549 NSCLC": {"system": "A549 NSCLC"}},
  "note": "Where “and” joins values, the source holds several entries; their conditions need not be identical. Identical values can stand only once.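 96-well plates; 48 h exposure; 5 concentrations. Endpoints by linear interpolation between flanking doses. Not reached: highest tested concentration assigned. Abbreviation: GI50, concentration required for 50% inhibition of growth. TGI is the concentration that stops growth completely.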",
  "data": [
    {"smiles": "CN1CCN(c2nc(C3=C(c4c[nH]c5ccccc45)C(=O)NC3=O)c3ccccc3n2)CC1", "values": [
      {"measurement": "GI50", "setting": "786-0 renal", "result": "15.7 µM and 18.3 µM"},
      {"measurement": "TGI", "setting": "786-0 renal", "result": "39.6 µM and 36.9 µM"},
      {"measurement": "GI50", "setting": "CCRF-CEM leukemia", "result": "28.9 µM and 14 µM"},
      {"measurement": "TGI", "setting": "CCRF-CEM leukemia", "result": "65 µM and 62.8 µM"},
      {"measurement": "GI50", "setting": "TK-10 renal", "result": "27.9 µM and 17.5 µM"},
      {"measurement": "TGI", "setting": "TK-10 renal", "result": "65 µM and 49 µM"},
      {"measurement": "GI50", "setting": "SW-620 colon", "result": "19.8 µM and 19.1 µM"},
      {"measurement": "TGI", "setting": "SW-620 colon", "result": "65 µM and 35.9 µM"},
      {"measurement": "GI50", "setting": "OVCAR-5 ovarian", "result": "28.7 µM and 34.5 µM"},
      {"measurement": "TGI", "setting": "OVCAR-5 ovarian", "result": "65 µM and > 100 µM"},
      {"measurement": "GI50", "setting": "NCI-H226 lung", "result": "12.4 µM and 28.3 µM"},
      {"measurement": "TGI", "setting": "NCI-H226 lung", "result": "37.9 µM and 75.3 µM"},
      {"measurement": "GI50", "setting": "SK-MEL-5 melanoma", "result": "11.2 µM and 12.6 µM"},
      {"measurement": "TGI", "setting": "SK-MEL-5 melanoma", "result": "20.3 µM and 26 µM"},
      {"measurement": "GI50", "setting": "RXF 393 renal", "result": "12.8 µM and 16.3 µM"},
      {"measurement": "TGI", "setting": "RXF 393 renal", "result": "22.6 µM and 31.2 µM"},
      {"measurement": "GI50", "setting": "NCI-H460 lung", "result": "15.2 µM and 19.2 µM"},
      {"measurement": "TGI", "setting": "NCI-H460 lung", "result": "33.4 µM and 35.9 µM"},
      {"measurement": "GI50", "setting": "MCF7 breast", "result": "10.1 µM and 16.6 µM"},
      {"measurement": "TGI", "setting": "MCF7 breast", "result": "27.9 µM and 40 µM"},
      {"measurement": "GI50", "setting": "A498 renal", "result": "12.9 µM and 15.4 µM"},
      {"measurement": "TGI", "setting": "A498 renal", "result": "24.3 µM and 29.7 µM"},
      {"measurement": "GI50", "setting": "PC-3 prostate", "result": "27.2 µM and 18.3 µM"},
      {"measurement": "TGI", "setting": "PC-3 prostate", "result": "65 µM and 43.6 µM"},
      {"measurement": "GI50", "setting": "CAKI-1 renal", "result": "9.47 µM and 16.9 µM"},
      {"measurement": "TGI", "setting": "CAKI-1 renal", "result": "54.5 µM and 46.1 µM"},
      {"measurement": "GI50", "setting": "HL-60(TB) leukemia", "result": "12.3 µM and 15.1 µM"},
      {"measurement": "TGI", "setting": "HL-60(TB) leukemia", "result": "36.6 µM and 35.6 µM"},
      {"measurement": "GI50", "setting": "MALME-3M melanoma", "result": "10 µM and 10.2 µM"},
      {"measurement": "TGI", "setting": "MALME-3M melanoma", "result": "19.9 µM and 24.3 µM"},
      {"measurement": "GI50", "setting": "OVCAR-8 ovarian", "result": "17.2 µM and 18.4 µM"},
      {"measurement": "TGI", "setting": "OVCAR-8 ovarian", "result": "65 µM and 57.5 µM"},
      {"measurement": "GI50", "setting": "ACHN renal", "result": "14.9 µM and 20.4 µM"},
      {"measurement": "TGI", "setting": "ACHN renal", "result": "52.4 µM and > 100 µM"},
      {"measurement": "GI50", "setting": "SNB-19 CNS", "result": "27.2 µM and 23.3 µM"},
      {"measurement": "TGI", "setting": "SNB-19 CNS", "result": "65 µM and 49.2 µM"},
      {"measurement": "GI50", "setting": "HT29 colon", "result": "14 µM and 12.3 µM"},
      {"measurement": "TGI", "setting": "HT29 colon", "result": "65 µM and 43.4 µM"},
      {"measurement": "GI50", "setting": "SK-OV-3 ovarian", "result": "19.5 µM and 16.2 µM"},
      {"measurement": "TGI", "setting": "SK-OV-3 ovarian", "result": "65 µM and 45.9 µM"},
      {"measurement": "GI50", "setting": "MOLT-4 leukemia", "result": "7.61 µM and 10.2 µM"},
      {"measurement": "TGI", "setting": "MOLT-4 leukemia", "result": "35.9 µM and 54.8 µM"},
      {"measurement": "GI50", "setting": "T-47D breast", "result": "15.6 µM and 26.3 µM"},
      {"measurement": "TGI", "setting": "T-47D breast", "result": "53.4 µM and 82.4 µM"},
      {"measurement": "GI50", "setting": "OVCAR-3 ovarian", "result": "16.2 µM and 19.4 µM"},
      {"measurement": "TGI", "setting": "OVCAR-3 ovarian", "result": "44.8 µM and 41.6 µM"},
      {"measurement": "GI50", "setting": "OVCAR-4 ovarian", "result": "18.9 µM and 16.2 µM"},
      {"measurement": "TGI", "setting": "OVCAR-4 ovarian", "result": "65 µM and 69.1 µM"},
      {"measurement": "GI50", "setting": "IGROV1 ovarian", "result": "21.4 µM and 21 µM"},
      {"measurement": "TGI", "setting": "IGROV1 ovarian", "result": "65 µM and 41.3 µM"},
      {"measurement": "GI50", "setting": "HOP-92 NSCLC", "result": "30.5 µM and 4.23 µM"},
      {"measurement": "TGI", "setting": "HOP-92 NSCLC", "result": "65 µM and 17.4 µM"},
      {"measurement": "GI50", "setting": "SN12C renal", "result": "9.03 µM and 12.9 µM"},
      {"measurement": "TGI", "setting": "SN12C renal", "result": "28.5 µM and 35.5 µM"},
      {"measurement": "GI50", "setting": "SK-MEL-2 melanoma", "result": "12.8 µM and 20.2 µM"},
      {"measurement": "TGI", "setting": "SK-MEL-2 melanoma", "result": "25.8 µM and 38.8 µM"},
      {"measurement": "GI50", "setting": "A549 NSCLC", "result": "21.2 µM and 18.4 µM"},
      {"measurement": "TGI", "setting": "A549 NSCLC", "result": "65 µM and 48.9 µM"}
    ]}
  ]
}
